Results reported in patent US20120309622A1, “HERBICIDES CONTAINING SUBSTITUTED THIEN-3-YL-SULPHONYLAMINIO(THIO)CARBONYL-TRIAZOLIN(ETHI)ONES” (BAYER INTELLECTUAL PROPERTY GMBH, priority 2001, published 2012).
Where two headings read alike, the source gives them in different places.

Tests used:
Assay in all cases: Post-emergence test/greenhouse, % damage after three weeks
Type in all cases: in vivo
Bromus secalinus = tested on: Bromus secalinus
Description: (§1) The expected action for a given combination of two herbicides can be calculated as follows (cf. COLBY, S. R.: “Calculating synergistic and antagonistic responses of herbicide combinations”, Weeds 15, pages 20-22, 1967):
(§2) If the actual damage exceeds the calculated value, the combination has a superadditive effect, that is to say a synergistic effect.
(§3) Test plants are grown under control conditions (temperature and light).
(§4) Following the spray application, the plant containers are kept in the greenhouse under constant light and temperature conditions.
(§5) After three weeks, the degree of damage to the plants is rated in % damage in comparison to the development of the untreated control.

Veronica persicaria = tested on: Veronica persicaria
Description: as §1, §2, §3, §4, §5

Lolium perenne = tested on: Lolium perenne
Avena fatua = tested on: Avena fatua
Text: as §1
(§6) If • X=% damage by herbicide A (active compound of the formula I) at an application rate of p kg/ha and • Y=% damage by herbicide B (active compound of the formula II) at an application rate of q kg/ha and • E=the expected damage of herbicides A+B at an application rate of p+q kg/ha, then
as §2
(§7) Test plants are grown under control conditions (temperature and light). Once the plants have reached a height of 5 to 15 cm, the test compound or the combination of test compounds is applied by spraying such that the particular amounts of active compound desired are applied per unit area. The concentration of the spray liquor is chosen so that the particular amounts of active compound desired are applied in 500 litres of water/ha.
as §4, §5
(§8) The figures denote: • 0%=no effect (like untreated control) • 100%=total destruction

Setaria viridis = tested on: Setaria viridis
Text: as §1, §6, §2, §7, §4, §5, §8

Xanthium strumarium = tested on: Xanthium strumarium
Text: as §1, §6, §2, §7, §4, §5, §8

Chenopodium album = tested on: Chenopodium album
Text: as §1, §6, §2, §7, §4, §5, §8

Alopecurus myosuroides = tested on: Alopecurus myosuroides
Text: as §1, §6, §2, §7, §4, §5, §8

Cyperus esculentus = tested on: Cyperus esculentus
Text: as §1, §6, §2, §7, §4, §5, §8

Matricaria inodora = tested on: Matricaria inodora
Text: as §1, §6, §2, §7, §4, §5, §8

Cassia tora = conditions: 4 g of ai/ha
Description: as §1, §2, §3, §4, §5

Polygonum convolvolus = conditions: 15 g of ai/ha
[1] = Bromus secalinus, post-emergence, 504 h, 30 g of ai/ha, read-out: Bromus secalinus observed

For `CCS(=O)(=O)Nc1cc(-n2nc(C(F)(F)F)n(C)c2=O)c(F)cc1C(N)=S` [HWH 4991], the Bromus secalinus observed (Bromus secalinus; 30 g of ai/ha) was 20%, the Bromus secalinus observed (Bromus secalinus; 60 g of ai/ha) was 30% and the Veronica persicaria observed (Veronica persicaria; 30 g of ai/ha) was 90%. The Lolium perenne observed (Lolium perenne; 30 g of ai/ha) was 20% and the Lolium perenne observed (Lolium perenne; 60 g of ai/ha) was 60%.
`CC(Cl)CC(=O)Nc1c([N+](=O)[O-])cnn1-c1c(Cl)cc(C(F)F)cc1Cl` (stereo not shown) [SLA 5599] gave an Avena fatua observed (Avena fatua; 30 g of ai/ha) of 0%, an Avena fatua observed (Avena fatua; 60 g of ai/ha) of 0% and a Veronica persicaria observed (Veronica persicaria; 30 g of ai/ha) of 80%. The Lolium perenne observed (Lolium perenne; 30 g of ai/ha) was 0% and the Lolium perenne observed (Lolium perenne; 60 g of ai/ha) was 30%.
`COc1cc(OC)nc(NC(=O)NS(=O)(=O)N(C)S(C)(=O)=O)n1` [amidosulfuron, N-(4,6-di-methoxypyrimidin-2-yl)-N′—(N-methyl-N-methylsulphonylsulphamoyl)urea, reference compound] was tested, and the Avena fatua observed (Avena fatua; 8 g of ai/ha) was 0%, the Avena fatua observed (Avena fatua; 15 g of ai/ha) was 0% and the Setaria viridis observed (Setaria viridis; 8 g of ai/ha) was 0%. For the same compound, the Setaria viridis observed (Setaria viridis; 15 g of ai/ha) was 30% and the pest or weed control at 8 g/ha (Bromus secalinus; Bromus secalinus, post-emergence, 504 h, 8 g of ai/ha, read-out: Bromus secalinus observed) was 0%.
In the case of `COC(=O)c1cc(Oc2ccc(Cl)cc2Cl)ccc1[N+](=O)[O-]` [bifenox, methyl 5-(2,4-dichlorophenoxy)-2-nitrobenzoate, reference compound], the Avena fatua observed (Avena fatua; 60 g of ai/ha) is reported as 10%, the Avena fatua observed (Avena fatua; 125 g of ai/ha) is reported as 10% and the Avena fatua observed (Avena fatua; 250 g of ai/ha) is reported as 10%. For the same compound, the Xanthium strumarium observed (Xanthium strumarium; 60 g of ai/ha) was 60%, the Xanthium strumarium observed (Xanthium strumarium; 125 g of ai/ha) was 60% and the Xanthium strumarium observed (Xanthium strumarium; 250 g of ai/ha) was 70%. The pest or weed control at 60 g/ha (Bromus secalinus; Bromus secalinus, post-emergence, 504 h, 60 g of ai/ha, read-out: Bromus secalinus observed) was 0%, the pest or weed control at 125 g/ha (Bromus secalinus; Bromus secalinus, post-emergence, 504 h, 125 g of ai/ha, read-out: Bromus secalinus observed) was 0% and the pest or weed control at 250 g/ha (Bromus secalinus; Bromus secalinus, post-emergence, 504 h, 250 g of ai/ha, read-out: Bromus secalinus observed) was 10%.
`N#Cc1cc(Br)c(O)c(Br)c1` [bromoxynil, 3,5-dibromo-4-hydroxybenzonitrile, reference compound] was tested, and the “Activity against Chenopodium album (%)” value (Chenopodium album; 250 g of a.i./ha) was 80%.
With `CCOC(=O)C(Cl)Cc1cc(-n2nc(C)n(C(F)F)c2=O)c(F)cc1Cl` (stereo not shown) [carfentrazone-ethyl, 2-(4-chloro-2-fluoro-5-(2-chloro-2-ethoxycarbonylethyl)phenyl)-4-difluoromethyl-5-methyl-2,4-dihydro-3H-1,2,4-triazol-3-one, reference compound] the Alopecurus myosuroides observed (Alopecurus myosuroides; 8 g of ai/ha) was 0%, the Chenopodium album observed (Chenopodium album; 2 g of ai/ha) was 0% and the Chenopodium album observed (Chenopodium album; 4 g of ai/ha) was 30%. For the same compound, the Chenopodium album observed (Chenopodium album; 8 g of ai/ha) was 50%, the Cyperus esculentus observed (Cyperus esculentus; 4 g of ai/ha) was 0% and the Cyperus esculentus observed (Cyperus esculentus; 8 g of ai/ha) was 30%.
With `COc1c(Cl)ccc(Cl)c1C(=O)O` [dicamba, 3,6-dichloro-2-methoxybenzoic acid, reference compound] the Alopecurus myosuroides observed (Alopecurus myosuroides; 30 g of ai/ha) was 0%, the Alopecurus myosuroides observed (Alopecurus myosuroides; 60 g of ai/ha) was 0% and the Cyperus esculentus observed (Cyperus esculentus; 30 g of ai/ha) was 0%. For the same compound, the Cyperus esculentus observed (Cyperus esculentus; 125 g of ai/ha) was 0% and the Veronica persicaria observed (Veronica persicaria; 60 g of ai/ha) was 40%.
`C[C@@H](Oc1ccc(Cl)cc1Cl)C(=O)O` [dichlorprop-P, (R)-2-(2,4-dichlorophen-oxy)propanoic acid, reference compound] was tested, and the Alopecurus myosuroides observed (Alopecurus myosuroides; 60 g of ai/ha) was 0%, the Alopecurus myosuroides observed (Alopecurus myosuroides; 125 g of ai/ha) was 0% and the Alopecurus myosuroides observed (Alopecurus myosuroides; 250 g of ai/ha) was 20%. The Avena fatua observed (Avena fatua; 125 g of ai/ha) was 0%, the Avena fatua observed (Avena fatua; 250 g of ai/ha) was 10% and the Matricaria inodora observed (Matricaria inodora; 60 g of ai/ha) was 0%. It also gave a Matricaria inodora observed (Matricaria inodora; 125 g of ai/ha) of 0% and a Matricaria inodora observed (Matricaria inodora; 250 g of ai/ha) of 0%.
`O=C(Nc1ccc(F)cc1F)c1cccnc1Oc1cccc(C(F)(F)F)c1` [diflufenican, N-(2,4-di-fluorophenyl)-2-(3-trifluoromethylphenoxy)pyridine-3-carboxamide, reference compound] gave an Alopecurus myosuroides observed (Alopecurus myosuroides; 30 g of ai/ha) of 50%, an Alopecurus myosuroides observed (Alopecurus myosuroides; 60 g of ai/ha) of 50% and an Alopecurus myosuroides observed (Alopecurus myosuroides; 125 g of ai/ha) of 70%. For the same compound, the Avena fatua observed (Avena fatua; 125 g of ai/ha) was 50% and the pest or weed control at 30 g/ha (Bromus secalinus; [1]) was 10%.
For `COc1ncc(F)c2nc(S(=O)(=O)Nc3c(F)cccc3F)nn12` [florasulam], the Bromus secalinus observed (Bromus secalinus; 2 g of ai/ha) was 30%, the Bromus secalinus observed (Bromus secalinus; 4 g of ai/ha) was 30% and the Cassia tora observed (Cassia tora) was 0%. The Veronica persicaria observed (Veronica persicaria; 4 g of ai/ha) was 70%.
Compound `CNC1=C(c2cccc(C(F)(F)F)c2)C(=O)C(c2ccccc2)O1` (stereo not shown) [flurtamone] has a Matricaria inodora observed (Matricaria inodora; 30 g of ai/ha) of 30% and a pest or weed control at 60 g/ha (Bromus secalinus; Bromus secalinus, post-emergence, 504 h, read-out: Bromus secalinus observed) of 30%.
With `CS(=O)(=O)c1cc(C(F)(F)F)ccc1C(=O)c1cnoc1C1CC1` [isoxaflutole] the Alopecurus myosuroides observed (Alopecurus myosuroides; 2 g of ai/ha) was 0%, the Alopecurus myosuroides observed (Alopecurus myosuroides; 4 g of ai/ha) was 0% and the Matricaria inodora observed (Matricaria inodora; 4 g of ai/ha) was 70%. It also gave a pest or weed control at 2 g/ha (Bromus secalinus; Bromus secalinus, post-emergence, 504 h, 2 g of ai/ha, read-out: Bromus secalinus observed) of 0% and a pest or weed control at 4 g/ha (Bromus secalinus; Bromus secalinus, post-emergence, 504 h, 4 g of ai/ha, read-out: Bromus secalinus observed) of 0%.
Work on `COC(=O)c1ccc(CNS(C)(=O)=O)cc1S(=O)(=O)NC(=O)Nc1nc(OC)cc(OC)n1` [mesosulfuron] yielded a Cyperus esculentus observed (Cyperus esculentus; 8 g of ai/ha) of 70%, a Cyperus esculentus observed (Cyperus esculentus; 15 g of ai/ha) of 70% and a Bromus secalinus observed (Bromus secalinus; 8 g of ai/ha) of 0%.
`CS(=O)(=O)c1ccc(C(=O)C2C(=O)CCCC2=O)c([N+](=O)[O-])c1` [mesotrione] gave an Alopecurus myosuroides observed (Alopecurus myosuroides; 15 g of ai/ha) of 0%, an Alopecurus myosuroides observed (Alopecurus myosuroides; 30 g of ai/ha) of 0% and a pest or weed control at 15 g/ha (Bromus secalinus; Bromus secalinus, post-emergence, 504 h, 15 g of ai/ha, read-out: Bromus secalinus observed) of 0%. The pest or weed control at 30 g/ha (Bromus secalinus; [1]) was 0% and the Polygonum convolvolus observed (Polygonum convolvolus) was 50%.
`CSc1nnc(C(C)(C)C)c(=O)n1N` [metribuzin] gave a Matricaria inodora observed (Matricaria inodora; 30 g of ai/ha) of 0% and a Xanthium strumarium observed (Xanthium strumarium; 30 g of ai/ha) of 40%.
